From BindingDB's records for doi:10.3109/14756360903179377 (Graduate University of Chinese Academy of Sciences, 2010) come the findings set out here.

In the assay the target is Fatty acid synthase (Gallus gallus, UniProt P12276). In words: FAS Activity Assay. The following applies: pH 7; 37 °C. As for the experimental part: FAS activity was determined by monitoring the decrease in absorbence at 340 nm resulting from the oxidation of NADPH using an Amersham Pharmacia Ultrospec 4300 pro UV-Vis spectrophotometer at 37°C. The assay mixture contained 100 mM potassium phosphate buffer, pH 7.0, 1 mM EDTA (ethylenediaminetetraacetic acid), 2.5 μM acetyl-CoA, 10 μM malonyl-CoA, 32 μM NADPH, and 10 μg chicken liver FAS in a total volume of 2.0 mL [Tian et al., J. Biol. Chem., 260:11375-87]. Fast inhibition was determined by adding thioether to the reaction system before FAS initiated the reaction. The initial velocity was measured to calculate the remaining activity (RA) of FAS, and each assay was repeated three times.
Sequence of Fatty acid synthase (P12276 whole entry): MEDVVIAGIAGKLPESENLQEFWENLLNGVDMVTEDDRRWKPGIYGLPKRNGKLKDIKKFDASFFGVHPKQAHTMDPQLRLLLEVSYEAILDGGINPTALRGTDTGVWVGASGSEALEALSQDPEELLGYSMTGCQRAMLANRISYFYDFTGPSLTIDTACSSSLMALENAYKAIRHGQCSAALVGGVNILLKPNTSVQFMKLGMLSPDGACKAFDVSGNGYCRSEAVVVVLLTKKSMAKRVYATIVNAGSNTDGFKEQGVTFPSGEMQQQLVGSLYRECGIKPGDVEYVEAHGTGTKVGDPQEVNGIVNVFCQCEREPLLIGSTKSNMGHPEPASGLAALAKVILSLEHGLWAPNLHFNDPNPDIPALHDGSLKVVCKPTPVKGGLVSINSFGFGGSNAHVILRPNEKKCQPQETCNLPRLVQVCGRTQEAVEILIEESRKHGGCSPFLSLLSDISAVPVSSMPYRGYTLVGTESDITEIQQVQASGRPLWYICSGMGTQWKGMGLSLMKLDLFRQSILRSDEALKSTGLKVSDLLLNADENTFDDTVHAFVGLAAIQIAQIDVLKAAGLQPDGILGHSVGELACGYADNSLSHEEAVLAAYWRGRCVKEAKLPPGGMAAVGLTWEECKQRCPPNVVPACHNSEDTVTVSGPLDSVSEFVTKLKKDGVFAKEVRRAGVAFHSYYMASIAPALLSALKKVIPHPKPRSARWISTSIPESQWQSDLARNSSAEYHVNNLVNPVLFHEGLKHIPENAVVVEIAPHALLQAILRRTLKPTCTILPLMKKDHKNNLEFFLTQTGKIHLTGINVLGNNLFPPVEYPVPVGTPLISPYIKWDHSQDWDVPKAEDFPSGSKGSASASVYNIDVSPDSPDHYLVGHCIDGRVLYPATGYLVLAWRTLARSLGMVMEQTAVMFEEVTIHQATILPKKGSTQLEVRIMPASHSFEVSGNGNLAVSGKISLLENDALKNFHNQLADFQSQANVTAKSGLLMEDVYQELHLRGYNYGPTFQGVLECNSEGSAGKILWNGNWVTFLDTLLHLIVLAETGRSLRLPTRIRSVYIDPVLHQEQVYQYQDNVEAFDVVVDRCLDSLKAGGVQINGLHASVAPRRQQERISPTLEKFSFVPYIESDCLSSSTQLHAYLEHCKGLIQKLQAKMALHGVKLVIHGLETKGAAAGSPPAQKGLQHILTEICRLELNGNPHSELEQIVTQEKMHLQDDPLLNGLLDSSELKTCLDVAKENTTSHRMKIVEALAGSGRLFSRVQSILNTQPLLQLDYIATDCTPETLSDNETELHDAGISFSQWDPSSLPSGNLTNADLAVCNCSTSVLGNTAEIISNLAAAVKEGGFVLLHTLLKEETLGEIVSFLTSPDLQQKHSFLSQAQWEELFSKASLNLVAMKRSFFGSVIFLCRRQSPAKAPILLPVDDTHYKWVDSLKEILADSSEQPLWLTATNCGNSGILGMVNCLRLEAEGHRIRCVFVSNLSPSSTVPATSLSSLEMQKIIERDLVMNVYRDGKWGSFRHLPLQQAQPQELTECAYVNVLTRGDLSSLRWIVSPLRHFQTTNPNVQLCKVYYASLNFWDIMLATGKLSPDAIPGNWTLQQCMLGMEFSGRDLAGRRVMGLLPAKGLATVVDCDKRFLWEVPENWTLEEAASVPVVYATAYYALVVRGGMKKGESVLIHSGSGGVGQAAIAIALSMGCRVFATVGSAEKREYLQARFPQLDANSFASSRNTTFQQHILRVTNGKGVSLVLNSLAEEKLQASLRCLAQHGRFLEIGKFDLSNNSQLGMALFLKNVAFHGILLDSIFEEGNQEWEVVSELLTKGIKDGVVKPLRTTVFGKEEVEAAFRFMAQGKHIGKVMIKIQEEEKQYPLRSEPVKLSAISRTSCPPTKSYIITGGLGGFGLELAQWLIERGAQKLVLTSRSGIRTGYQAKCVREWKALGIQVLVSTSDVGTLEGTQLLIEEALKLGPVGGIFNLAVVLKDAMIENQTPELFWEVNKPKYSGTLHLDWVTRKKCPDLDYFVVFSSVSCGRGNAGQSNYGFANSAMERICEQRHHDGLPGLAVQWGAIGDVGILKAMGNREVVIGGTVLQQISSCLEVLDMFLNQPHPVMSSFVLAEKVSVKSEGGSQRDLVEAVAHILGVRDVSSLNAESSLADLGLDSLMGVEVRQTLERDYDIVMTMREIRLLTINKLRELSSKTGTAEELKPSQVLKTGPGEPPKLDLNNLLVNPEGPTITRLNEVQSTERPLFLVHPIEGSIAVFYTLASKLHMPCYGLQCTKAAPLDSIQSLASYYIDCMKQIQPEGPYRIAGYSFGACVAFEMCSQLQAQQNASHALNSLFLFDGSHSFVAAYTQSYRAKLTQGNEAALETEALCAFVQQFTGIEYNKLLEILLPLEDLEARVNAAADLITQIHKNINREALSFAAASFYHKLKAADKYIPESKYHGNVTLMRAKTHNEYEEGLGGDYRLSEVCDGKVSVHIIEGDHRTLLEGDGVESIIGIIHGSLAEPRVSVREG
In the case of `C=CCSSCC=C` [3-Allyldisulfanyl-propene], the IC50 (in general, the midpoint of a concentration-inhibition curve) was 145 µM.

In turn, `CSSC` [Dimethyl disulfide] gave an IC50 of 2210 µM.

With `C=CCSSSCC=C` [Diallyl trisulfide], half-maximal inhibition (IC50) was put at 8.37 µM.
